Test results from patent US20260285816A1, “Piperazinyl-Modified Quinazolinyl-Aryl Urea Derivative, And Preparation Method And Use Thereof” (Guangxi Normal University, priority 2025, published 2026).
Like-named read-outs stand apart in the source and are kept apart here.

Tests used:
Assay type in all cases: cell-based, human
Hep G2 cells = assay: CCK-8 anti-proliferative assay, Hep G2; settings: Homo sapiens, HepG2, co-incubated 48 h, read-out: Anti-proliferative activity (IC50 ± standard deviation) Hep G2
How it was run: (§1)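 Logarithmic-phase cells are plated at 5,000 cells per well and incubated at 37° C. with 5% CO2. At 70% confluency, compound is added at nine final concentrations from 1 to 30 μM. After exposure, CCK-8 is added and OD at 450 nm measured to calculate IC50.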

MCF-7 cells = assay: CCK-8 anti-proliferative assay, MCF-7; settings: Homo sapiens, MCF7, co-incubated 48 h, read-out: Anti-proliferative activity (IC50 ± standard deviation) MCF-7
How it was run: (§2)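 Cells seeded at 5,000/well, grown at 37° C, 5% CO2 to 70% confluence, then treated in triplicate with 1-30 μM compound (nine concentrations) for designated times.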

J82 cells = assay: CCK-8 anti-proliferative assay, J82; settings: Homo sapiens, J82, co-incubated 48 h, read-out: Anti-proliferative activity (IC50 ± standard deviation) J82
Experimental: (§3) The obtained quinazolinyl-aryl urea derivatives were screened for compounds with optimal activity using the following method.
(§4) Experimental Procedure for Anti-Proliferative Activity Evaluation: The CCK-8 assay was employed. Cells in logarithmic growth phase were harvested, adjusted to appropriate density, and uniformly seeded into 96-well plates using a multichannel pipette (180 μL cell suspension containing complete medium per well, 5,000 cells/well). Blank control wells (containing basal medium, CCK-8 solution, and DMSO only) were set. Cells were incubated at 37° C. under 5% CO2. After 70% confluency was reached, test compounds (target compounds/positive controls) were added at final concentrations of 1, 2, 4, 6, 8, 12, 16, 24, and 30 μM (3 repeated wells per concentration). Compounds were pre-dissolved in DMSO, sterilized, and diluted with medium before adding 20 μL/well. After co-incubation for designated durations, 10 μL CCK-8 solution was added per well followed by 1-4 h incubation (different cells have different incubation times). […] Inhibition rates were calculated as: (ODcontrol−ODtreatment)/ODcontrol×100%. Median inhibitory concentrations (IC50 values) were derived using Origin v8.0 software.

HeLa cells = assay: CCK-8 anti-proliferative assay, HeLa; settings: Homo sapiens, HeLa, co-incubated 48 h, read-out: Anti-proliferative activity (IC50 ± standard deviation) HeLa
Experimental: as §3, §4

MG-63 cells = assay: CCK-8 anti-proliferative assay, MG-63; settings: Homo sapiens, MG-63, co-incubated 48 h, read-out: Anti-proliferative activity (IC50 ± standard deviation) MG-63
How it was run: as §1

T24 cells = assay: CCK-8 anti-proliferative assay, T24; settings: Homo sapiens, T-24, co-incubated 48 h, read-out: Anti-proliferative activity (IC50 ± standard deviation) T24
How it was run: as §1

BxPC-3 cells = assay: CCK-8 anti-proliferative assay, BxPC-3; settings: Homo sapiens, BXPC-3, co-incubated 48 h, read-out: Anti-proliferative activity (IC50 ± standard deviation) BxPC-3
How it was run: as §1

[1] = test system: embryonic lung fibroblasts (WI-38); assay: CCK-8 anti-proliferative assay, normal cells WI-38; settings: Homo sapiens, read-out: Anti-proliferative activity (IC50 ± standard deviation) WI-38
Text: The obtained quinazolinyl-aryl urea derivatives were screened for compounds with optimal activity using the following method. All cell lines employed in this experiment were of human origin, including: bladder cancer cells: J82, UM-UC-3, T24, 5637, pancreatic cancer cells: BxPC-3, PANC-1, osteosarcoma cells: 143B, MG-63, cervical cancer cells: HeLa, breast cancer cells: MCF-7, NSCLC cells: A549, hepatoblastoma cells: Hep G2, and ovarian cancer cells: SK-OV-3, as well as normal cell lines: immortalized ureteral epithelial cells (SV-HUC-1), embryonic lung fibroblasts (WI-38).
Experimental Procedure for Anti-Proliferative Activity Evaluation: The CCK-8 assay was employed. Cells in logarithmic growth phase were harvested, adjusted to appropriate density, and uniformly seeded into 96-well plates using a multichannel pipette (180 μL cell suspension containing complete medium per well, 5,000 cells/well). Blank control wells (containing basal medium, CCK-8 solution, and DMSO only) were set. Cells were incubated at 37° C. under 5% CO2. After 70% confluency was reached, test compounds (target compounds/positive controls) were added at final concentrations of 1, 2, 4, 6, 8, 12, 16, 24, and 30 μM (3 repeated wells per concentration). Compounds were pre-dissolved in DMSO, sterilized, and diluted with medium before adding 20 μL/well. After co-incubation for designated durations, 10 μL CCK-8 solution was added per well followed by 1-4 h incubation (different cells have different incubation times). The reaction was terminated, and OD (optical density) values at 450 nm were measured using a microplate reader. Inhibition rates were calculated as: (ODcontrol−ODtreatment)/ODcontrol×100%. Median inhibitory concentrations (IC50 values) were derived using Origin v8.0 software.

5637 cells = assay: CCK-8 anti-proliferative assay, 5637; settings: Homo sapiens, co-incubated 48 h, read-out: Anti-proliferative activity (IC50 ± standard deviation) 5637
How it was run: as §2

[2] = test system: immortalized ureteral epithelial cells (SV-HUC-1); assay: CCK-8 anti-proliferative assay, normal cells SV-HUC-1; settings: Homo sapiens, SV-HUC1, normal cells, co-incubated 48 h, read-out: Anti-proliferative activity (IC50 ± standard deviation) SV-HUC-1
Experimental: as §3, §4

UM-UC-3 cells = assay: CCK-8 anti-proliferative assay, UM-UC-3; settings: Homo sapiens, UMUC3, co-incubated 48 h, read-out: Anti-proliferative activity (IC50 ± standard deviation) UM-UC-3
How it was run: as §2

PANC-1 cells = assay: CCK-8 anti-proliferative assay, PANC-1; settings: Homo sapiens, PANC-1, co-incubated 48 h, read-out: Anti-proliferative activity (IC50 ± standard deviation) PANC-1
How it was run: as §1

143B cells = assay: CCK-8 anti-proliferative assay, 143B; settings: Homo sapiens, 143B, co-incubated 48 h, read-out: Anti-proliferative activity (IC50 ± standard deviation) 143B
How it was run: as §1

A549 cells = assay: CCK-8 anti-proliferative assay, A549; settings: Homo sapiens, A549, co-incubated 48 h, read-out: Anti-proliferative activity (IC50 ± standard deviation) A549
How it was run: as §2

SK-OV-3 cells = assay: CCK-8 anti-proliferative assay, SK-OV-3; settings: Homo sapiens, SK-OV-3, co-incubated 48 h, read-out: Anti-proliferative activity (IC50 ± standard deviation) SK-OV-3
How it was run: as §2

[3] = WI-38, Table 13, co-incubated 48 h

Row | IC50 (MCF-7 cells; Table 12) [µM] | IC50 (HeLa cells; Table 12) [µM] | IC50 (T24 cells; Table 10) [µM] | IC50 (BxPC-3 cells; Table 11) [µM] | IC50 (PANC-1 cells; Table 11) [µM] | IC50 (A549 cells; Table 13) [µM] | IC50 (SK-OV-3 cells; Table 12) [µM] | Structure (SMILES) | IC50 (Hep G2 cells; Table 12) [µM] | IC50 (J82 cells; Table 10) [µM] | IC50 (MG-63 cells; Table 11) [µM] | IC50 [1, 3] [µM] | IC50 (5637 cells; Table 10) [µM] | IC50 ([2]; Table 13) [µM] | IC50 (UM-UC-3 cells; Table 10) [µM] | IC50 (143B cells; Table 11) [µM] | also measured
1 | – | – | – | – | – | – | – | COc1cc2ncnc(NCc3cccc(NC(=O)NC4CCCCC4)c3)c2cc1OCCCCCCN1CCN(CCN2CCOCC2)CC1 [Compound 8-1v, N-(3-(((7-Methoxy-6-((6-(4-(2-morpholinoethyl)piperazin-1-yl)hexyl)oxy)quinazolin-4-yl)amino)methyl)phenyl)-N′-cyclohexylurea] | – | – | – | – | – | – | – | – | IC50 (Hep G2 cells; Table 8): 10.6 ± 0.94 µM; IC50 (MCF-7 cells; Table 8): > 30 µM; IC50 (J82 cells; Table 6): 13.9 ± 0.95 µM; IC50 (HeLa cells; Table 8): > 30 µM; IC50 (MG-63 cells; Table 7): 15.6 ± 0.92 µM; IC50 (T24 cells; Table 6): 15.8 ± 0.89 µM; IC50 (BxPC-3 cells; Table 7): 16.8 ± 1.25 µM; IC50 ([1]; WI-38, Table 9, co-incubated 48 h): 15.4 ± 0.88 µM; IC50 (5637 cells; Table 6): 11.2 ± 0.97 µM; IC50 ([2]; Table 9): > 30 µM; IC50 (UM-UC-3 cells; Table 6): 19 ± 0.34 µM; IC50 (PANC-1 cells; Table 7): > 30 µM; IC50 (143B cells; Table 7): 22.4 ± 1.63 µM; IC50 (A549 cells; Table 8): 16.5 ± 0.77 µM; IC50 (SK-OV-3 cells; Table 9): > 30 µM
2 | 26.3 ± 1.46 | > 30 | 15.8 ± 0.92 | > 30 | > 30 | > 30 | 22.4 ± 1.33 | COc1cc2ncnc(NCc3cccc(NC(=O)Nc4ccccc4)c3)c2cc1OCCCCCCN1CCC(CN2CCN(c3ccccn3)CC2)CC1 [Compound 8-2a, N-(3-(((7-methoxy-6-((6-(4-((4-(pyridin-2-yl)piperazin-1-yl)methyl)piperidin-1-yl)hexyl)oxy)quinazolin-4-yl)amino)methyl)phenyl)-N′-phenylurea] | 25.7 ± 1.81 | > 30 | 17.4 ± 1.38 | 17.6 ± 0.72 | 16.2 ± 0.77 | 26.4 ± 1.69 | 25.8 ± 1.81 | > 30 | –
3 | 7.25 ± 0.66 | 5.72 ± 0.41 | 6.96 ± 0.85 | 5.92 ± 0.38 | 14.5 ± 0.94 | 5.47 ± 0.22 | 6.21 ± 0.55 | COc1cc2ncnc(NCc3cccc(NC(=O)Nc4ccccc4C)c3)c2cc1OCCCCCCN1CCC(CN2CCN(c3ccccn3)CC2)CC1 [Compound 8-2b, N-(3-(((7-methoxy-6-((6-(4-((4-(pyridin-2-yl)piperazin-1-yl)methyl)piperidin-1-yl)hexyl)oxy)quinazolin-4-yl)amino)methyl)phenyl)-N′-(2-methylphenyl)urea] | 4.04 ± 0.28 | 6.86 ± 0.52 | 6.44 ± 0.81 | 9.02 ± 0.41 | 4.79 ± 0.43 | 8.74 ± 0.63 | 7.03 ± 0.37 | 6.47 ± 0.34 | –
4 | 6.69 ± 0.48 | 6.19 ± 0.53 | 7.29 ± 0.61 | 13.4 ± 0.88 | 19.2 ± 1.08 | 8.39 ± 0.85 | 7.94 ± 0.66 | COc1cc2ncnc(NCc3cccc(NC(=O)Nc4cccc(C)c4)c3)c2cc1OCCCCCCN1CCC(CN2CCN(c3ccccn3)CC2)CC1 [Compound 8-2c, N-(3-(((7-methoxy-6-((6-(4-((4-(pyridin-2-yl)piperazin-1-yl)methyl)piperidin-1-yl)hexyl)oxy)quinazolin-4-yl)amino)methyl)phenyl)-N′-(3-methylphenyl)urea] | 4.69 ± 0.36 | 7.02 ± 0.58 | 6.83 ± 0.62 | 11.2 ± 0.49 | 7.06 ± 0.57 | 8.28 ± 0.51 | 8.98 ± 0.89 | 6.01 ± 0.46 | –
5 | 7.92 ± 0.51 | 4.79 ± 0.38 | 6.62 ± 0.49 | 9.29 ± 0.73 | 25.4 ± 2.04 | 9.23 ± 0.61 | 6.79 ± 0.62 | COc1cc2ncnc(NCc3cccc(NC(=O)Nc4ccc(C)cc4)c3)c2cc1OCCCCCCN1CCC(CN2CCN(c3ccccn3)CC2)CC1 [Compound 8-2d, N-(3-(((7-methoxy-6-((6-(4-((4-(pyridin-2-yl)piperazin-1-yl)methyl)piperidin-1-yl)hexyl)oxy)quinazolin-4-yl)amino)methyl)phenyl)-N′-(4-methylphenyl)urea] | 3.82 ± 0.25 | 13.8 ± 1.33 | 7.29 ± 0.62 | 9.79 ± 0.38 | 14.3 ± 0.89 | 7.94 ± 0.44 | 7.58 ± 0.79 | 6.92 ± 0.39 | –
